Test results published in ChEMBL document CHEMBL1201862, “PubChem BioAssay data set” (2004).
The source made the active and inactive calls.

Experiments:
[1] = Luminescence Cell-Based Dose Confirmation HTS to Identify Activators of 5'UTR Stem-Loop Driven Alpha-Synuclein mRNA Translation in H4 Neuroglioblastoma Cells. [Related pubchem assays: 1829 (Project Summary), 1814 (Primary HTS)]; type: functional
[2] = Luminescence Cell-Based Dose Response HTS to Identify Activators of Luciferase Translation or Activity in H4 […] Cells. [Related pubchem assays: 1829 (Project Summary), 1814 (Primary HTS)]; type: functional
[3] = test system: H4; experiment: Luminescence Cell-Based Dose Response HTS to Identify Activators of 5'UTR Stem-Loop Driven Prion Protein mRNA Translation in H4 Neuroglioblastoma Cells. [Related pubchem assays: 1829 (Project Summary), 1814 (Primary HTS)]; type: functional; details: Homo sapiens
[4] = target: T1, Corticotropin-releasing factor receptor 2/Corticotropin-releasing factor-binding protein (Homo sapiens, UniProt P24387+Q13324); experiment: Dose Response confirmation of uHTS hits for small molecule antagonists of the CRF-binding protein and CRF-R2 receptor complex.; type: functional; details: read-out: IC50_Mean
T1 sequence (Q13324 whole entry): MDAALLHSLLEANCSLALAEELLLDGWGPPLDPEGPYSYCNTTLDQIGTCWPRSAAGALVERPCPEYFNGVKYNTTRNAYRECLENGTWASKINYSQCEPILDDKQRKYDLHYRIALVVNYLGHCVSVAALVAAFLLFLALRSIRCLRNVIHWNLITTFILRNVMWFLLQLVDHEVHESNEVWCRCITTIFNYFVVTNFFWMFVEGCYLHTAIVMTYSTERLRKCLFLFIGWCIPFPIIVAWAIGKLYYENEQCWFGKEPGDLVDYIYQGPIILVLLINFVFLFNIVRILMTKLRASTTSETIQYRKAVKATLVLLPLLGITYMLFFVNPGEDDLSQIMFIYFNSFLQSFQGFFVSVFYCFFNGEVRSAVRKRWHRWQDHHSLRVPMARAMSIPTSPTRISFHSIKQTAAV
T1 sequence (P24387 whole entry): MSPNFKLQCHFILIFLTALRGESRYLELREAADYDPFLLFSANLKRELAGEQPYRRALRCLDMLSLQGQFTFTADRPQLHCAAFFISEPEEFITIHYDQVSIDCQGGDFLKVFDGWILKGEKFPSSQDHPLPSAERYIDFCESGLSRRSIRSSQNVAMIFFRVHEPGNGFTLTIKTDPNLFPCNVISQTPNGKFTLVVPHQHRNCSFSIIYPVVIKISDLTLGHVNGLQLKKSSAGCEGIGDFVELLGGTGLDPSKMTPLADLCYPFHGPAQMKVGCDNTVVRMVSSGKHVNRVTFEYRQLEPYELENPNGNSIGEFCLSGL

[5] = target: T1, Corticotropin-releasing factor receptor 2/Corticotropin-releasing factor-binding protein; experiment: activators of CRF receptor 2 with binding protein – uHTS hits, confirmation (AID 602473); type: functional; details: read-out: EC50_Mean
[6] = control 3'UTR Renilla luciferase suppression, dose response, counter-screen for Shn3 inhibitor project, cell-based, Clone20-Shn3RL, cherry-picked (AID 624133); type: functional
[7] = target: Cytochrome P450 3A4 (Homo sapiens, UniProt P08684);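 note: CYP3A4 tested as one member of a cytochrome P450 panel screen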
[8] = target: Cytochrome P450 2C19 (Homo sapiens, UniProt P33261); experiment: Cytochrome panel assay with activity outcomes. Panel member name: p450-cyp2c19 Compounds with AC50 equal or less than 10 uM are considered active; type: functional
[9] = target: Cytochrome P450 2D6 (Homo sapiens, UniProt P10635);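 note: CYP2D6 member of a cytochrome P450 panel assay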
[10] = target: Heat shock protein HSP 90-alpha (Homo sapiens, UniProt P07900); type: functional, organism-based
[11] = target: T2, Cytochrome P450 1A2 (Homo sapiens, UniProt P05177);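 note: PubChem cytochrome P450 panel assay, CYP1A2 panel member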
T2 sequence (P05177 whole entry): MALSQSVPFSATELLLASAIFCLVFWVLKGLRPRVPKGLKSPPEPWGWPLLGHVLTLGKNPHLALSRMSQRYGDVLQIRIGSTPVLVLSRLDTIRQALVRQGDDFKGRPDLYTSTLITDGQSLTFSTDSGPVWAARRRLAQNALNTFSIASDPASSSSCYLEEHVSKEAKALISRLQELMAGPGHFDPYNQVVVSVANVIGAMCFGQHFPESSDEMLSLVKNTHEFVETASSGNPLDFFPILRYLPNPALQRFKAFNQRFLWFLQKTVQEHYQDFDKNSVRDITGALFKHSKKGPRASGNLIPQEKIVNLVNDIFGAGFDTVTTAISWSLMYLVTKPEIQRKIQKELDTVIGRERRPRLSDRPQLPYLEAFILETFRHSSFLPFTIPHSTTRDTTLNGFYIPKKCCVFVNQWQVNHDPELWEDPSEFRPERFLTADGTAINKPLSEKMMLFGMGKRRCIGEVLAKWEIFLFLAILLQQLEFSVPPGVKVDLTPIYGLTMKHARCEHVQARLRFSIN

[12] = target: Cytochrome P450 2C9 (Homo sapiens, UniProt P11712)
[13] = target: T3, Replicative DNA helicase DnaB (Mycobacterium tuberculosis, UniProt P9WMR3); experiment: DnaB intein splicing inhibitors, dose response, biochemical, cell-free fluorescence (AID 449749); type: functional
T3 sequence (P9WMR3 whole entry): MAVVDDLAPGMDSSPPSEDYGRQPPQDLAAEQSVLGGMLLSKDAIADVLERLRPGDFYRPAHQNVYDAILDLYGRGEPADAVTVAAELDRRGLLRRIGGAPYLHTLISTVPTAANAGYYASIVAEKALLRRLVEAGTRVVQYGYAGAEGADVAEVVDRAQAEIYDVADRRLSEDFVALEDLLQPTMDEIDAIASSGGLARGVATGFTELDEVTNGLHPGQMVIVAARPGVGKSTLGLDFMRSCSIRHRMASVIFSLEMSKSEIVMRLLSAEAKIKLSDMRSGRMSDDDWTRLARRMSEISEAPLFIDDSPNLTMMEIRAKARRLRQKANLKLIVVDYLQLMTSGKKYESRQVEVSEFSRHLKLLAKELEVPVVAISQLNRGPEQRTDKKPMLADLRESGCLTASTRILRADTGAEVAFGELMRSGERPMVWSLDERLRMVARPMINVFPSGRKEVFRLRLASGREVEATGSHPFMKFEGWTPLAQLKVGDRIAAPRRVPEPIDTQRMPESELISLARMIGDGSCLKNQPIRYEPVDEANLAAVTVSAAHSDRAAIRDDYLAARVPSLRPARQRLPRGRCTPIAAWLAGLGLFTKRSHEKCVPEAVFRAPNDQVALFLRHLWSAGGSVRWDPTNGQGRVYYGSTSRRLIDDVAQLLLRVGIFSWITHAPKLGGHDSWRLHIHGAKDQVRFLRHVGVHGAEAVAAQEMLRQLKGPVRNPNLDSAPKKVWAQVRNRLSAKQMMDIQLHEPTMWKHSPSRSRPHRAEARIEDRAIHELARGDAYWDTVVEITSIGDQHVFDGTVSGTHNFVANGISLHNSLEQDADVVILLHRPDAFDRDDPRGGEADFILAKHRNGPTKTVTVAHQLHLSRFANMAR

[14] = target: T4, Protein RecA (Mycobacterium tuberculosis, UniProt P9WHJ3); experiment: Fluorescence Cell-Free Homogeneous Dose Retest to Identify Inhibitors of RecA-Intein Splicing Activity. [Related pubchem assays (depositor defined):AID2097, AID2223, AID489010, AID492950]; type: functional
T4 sequence (P9WHJ3 whole entry): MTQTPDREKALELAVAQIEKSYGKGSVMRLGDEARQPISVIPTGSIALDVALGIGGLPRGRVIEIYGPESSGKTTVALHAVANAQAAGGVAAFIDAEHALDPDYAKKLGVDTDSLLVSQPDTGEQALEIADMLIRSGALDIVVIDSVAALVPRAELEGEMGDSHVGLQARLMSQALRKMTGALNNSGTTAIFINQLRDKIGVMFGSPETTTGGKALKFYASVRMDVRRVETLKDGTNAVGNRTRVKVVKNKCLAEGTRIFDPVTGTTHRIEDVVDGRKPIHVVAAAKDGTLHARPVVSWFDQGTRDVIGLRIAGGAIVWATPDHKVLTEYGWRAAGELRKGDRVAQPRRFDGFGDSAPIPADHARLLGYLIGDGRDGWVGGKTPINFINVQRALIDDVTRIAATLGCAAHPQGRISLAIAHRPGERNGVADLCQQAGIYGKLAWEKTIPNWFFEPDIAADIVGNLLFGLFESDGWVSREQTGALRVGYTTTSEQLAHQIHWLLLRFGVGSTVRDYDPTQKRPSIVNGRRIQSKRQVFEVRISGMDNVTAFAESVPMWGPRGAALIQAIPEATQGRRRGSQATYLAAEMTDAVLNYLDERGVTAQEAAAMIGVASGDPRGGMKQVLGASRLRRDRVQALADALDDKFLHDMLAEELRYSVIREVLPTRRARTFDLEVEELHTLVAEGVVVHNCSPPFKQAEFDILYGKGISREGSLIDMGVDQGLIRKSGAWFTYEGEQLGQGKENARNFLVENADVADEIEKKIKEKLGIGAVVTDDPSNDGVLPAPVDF

[15] = cytotoxicity toward NIH3T3 fibroblasts, dose response, counter-screen, cell-based, ATP luminescence, mouse fibroblasts (AID 2010); type: functional;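 note: cells exposed to compound for about 90 hours before reading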
[16] = inhibitors of intracellular T. cruzi replication, confirmation, NIH3T3 host cells, beta-gal luminescence (AID 2044); type: functional, cell-based;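 note: intracellular parasites grown in NIH/3T3 mouse fibroblasts as host cells; luminescent beta-galactosidase reporter signal from transgenic T. cruzi replicating inside host cells; inhibitors lower the luminescence signal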

Cytochrome P450 2C19, sequence (P33261 whole entry): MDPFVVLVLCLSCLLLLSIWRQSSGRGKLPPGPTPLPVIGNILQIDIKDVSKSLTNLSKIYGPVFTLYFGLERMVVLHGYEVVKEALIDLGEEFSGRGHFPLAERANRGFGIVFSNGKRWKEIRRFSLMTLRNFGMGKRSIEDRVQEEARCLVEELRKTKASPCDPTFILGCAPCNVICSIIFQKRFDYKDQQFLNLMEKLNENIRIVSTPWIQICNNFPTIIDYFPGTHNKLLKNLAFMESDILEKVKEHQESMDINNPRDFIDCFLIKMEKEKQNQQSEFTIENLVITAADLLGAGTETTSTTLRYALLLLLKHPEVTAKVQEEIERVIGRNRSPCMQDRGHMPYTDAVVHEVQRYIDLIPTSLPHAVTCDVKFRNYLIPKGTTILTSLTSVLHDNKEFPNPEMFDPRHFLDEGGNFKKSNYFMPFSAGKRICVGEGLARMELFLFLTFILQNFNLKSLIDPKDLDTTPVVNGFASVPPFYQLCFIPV
Cytochrome P450 2D6, sequence (P10635 whole entry): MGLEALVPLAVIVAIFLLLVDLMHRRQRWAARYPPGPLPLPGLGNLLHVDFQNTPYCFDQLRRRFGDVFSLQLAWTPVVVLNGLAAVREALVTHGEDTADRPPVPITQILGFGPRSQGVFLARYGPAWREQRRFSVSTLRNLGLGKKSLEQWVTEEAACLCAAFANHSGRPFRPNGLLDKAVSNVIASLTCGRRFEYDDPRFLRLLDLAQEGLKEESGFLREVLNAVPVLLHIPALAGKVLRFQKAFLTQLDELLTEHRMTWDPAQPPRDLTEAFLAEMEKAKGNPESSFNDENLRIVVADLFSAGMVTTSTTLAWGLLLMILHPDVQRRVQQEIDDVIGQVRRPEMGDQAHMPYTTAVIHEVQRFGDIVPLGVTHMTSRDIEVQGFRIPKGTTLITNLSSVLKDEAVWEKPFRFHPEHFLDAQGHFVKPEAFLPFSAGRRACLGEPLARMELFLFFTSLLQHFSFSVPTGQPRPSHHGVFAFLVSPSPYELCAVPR
Cytochrome P450 2C9, sequence (P11712 whole entry): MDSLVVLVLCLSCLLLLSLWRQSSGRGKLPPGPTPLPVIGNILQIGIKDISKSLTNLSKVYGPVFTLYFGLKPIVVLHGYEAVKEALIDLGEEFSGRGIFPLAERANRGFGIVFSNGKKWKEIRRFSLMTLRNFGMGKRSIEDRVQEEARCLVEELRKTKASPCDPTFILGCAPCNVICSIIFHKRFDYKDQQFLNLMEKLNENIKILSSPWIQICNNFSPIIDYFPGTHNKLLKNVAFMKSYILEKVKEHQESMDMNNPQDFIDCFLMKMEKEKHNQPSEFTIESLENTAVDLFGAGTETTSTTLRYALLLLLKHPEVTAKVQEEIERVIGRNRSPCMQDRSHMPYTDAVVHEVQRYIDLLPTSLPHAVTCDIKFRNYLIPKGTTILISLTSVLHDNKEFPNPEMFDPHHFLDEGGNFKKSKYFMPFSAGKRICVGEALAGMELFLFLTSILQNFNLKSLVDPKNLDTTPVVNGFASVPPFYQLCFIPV
Cytochrome P450 3A4, sequence (P08684 whole entry): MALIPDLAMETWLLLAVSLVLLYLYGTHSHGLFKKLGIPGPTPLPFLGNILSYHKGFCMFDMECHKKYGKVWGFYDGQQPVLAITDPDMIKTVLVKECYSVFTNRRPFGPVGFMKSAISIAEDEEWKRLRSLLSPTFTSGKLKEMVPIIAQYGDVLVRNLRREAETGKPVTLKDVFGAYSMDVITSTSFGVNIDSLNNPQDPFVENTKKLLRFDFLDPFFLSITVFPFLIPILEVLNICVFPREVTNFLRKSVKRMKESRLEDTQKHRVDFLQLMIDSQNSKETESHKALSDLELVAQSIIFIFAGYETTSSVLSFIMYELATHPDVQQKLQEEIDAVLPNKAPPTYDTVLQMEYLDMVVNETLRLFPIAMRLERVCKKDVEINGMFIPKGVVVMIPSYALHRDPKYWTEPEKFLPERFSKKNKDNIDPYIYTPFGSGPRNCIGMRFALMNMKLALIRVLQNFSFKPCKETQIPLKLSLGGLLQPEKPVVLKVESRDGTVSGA

## COc1cccc(C2(O)CC(C(F)(F)F)=NN2C(=O)c2ccccn2)c1 (configuration not stated)
[1]
  EC50: 18.5 µM (active)
[2]
  EC50: > 120 µM (not active)
[3]
  EC50: 7.55 µM (active)

## Cc1ccc(C2CN=NC23CCc2ccccc2C3=O)cc1 (configuration not stated)
[1]
  EC50: 15.3 µM (active)
[2]
  EC50: 23.9 µM (active)
[3]
  EC50: > 120 µM (not active)

## CC(C)(C)c1nc(CN2CCCCC2)cc(CN2CCCCC2)c1O
[4]
  IC50: > 47.1 µM (inactive)
[5]
  EC50: > 53 µM (inactive)

## COc1cc2c(cc1NC(=O)CSc1ccccn1)oc1ccccc12
[1]
  EC50: 10.9 µM (active)
[2]
  EC50: 15 µM (active)
[3]
  EC50: 30.4 µM (active)

## COc1ccccc1-n1ccnc(SCC(=O)NCc2ccccc2Cl)c1=O
[6]
  AC50: 13 µM (active)

## CC(C)(C)C(=O)NC(=S)NCCc1ccccc1
[4]
  IC50: > 47.1 µM (inactive)
[5]
  EC50: > 53 µM (inactive)
[7]
  AC50: 25.1 µM (inconclusive)

## C[C@@]12CC[C@H]3[C@H](CC=C4C[C@@H](O)CC[C@@]43C)[C@@H]1CC[C@@H]2N(CCO)CCO
[8]
  AC50: inconclusive
[9]
  AC50: 3.98 µM (inconclusive)

## CSc1nc2ccc(S(=O)(=O)NC3CCCCC3)cc2s1
[10]
  AC50: 8.57 µM (active)

## Nc1ccc(Cc2nc3c(ccc4ccccc43)[nH]2)cc1
[1]
  EC50: 14 µM (active)
[2]
  EC50: 24.8 µM (active)
[3]
  EC50: 14.7 µM (active)

## O=C1NC(c2cccc([N+](=O)[O-])c2)=CCN1c1ccccc1O [ICILLIN]
[9]
  AC50: 20 µM (inconclusive)
[11]
  AC50: 31.6 µM (inconclusive)

## COc1ccc(OC(=O)c2ccc(Cl)cc2)c(C(C)=O)c1
[4]
  IC50: > 47.1 µM (inactive)
[5]
  EC50: > 53 µM (inactive)

## COc1ccc2cc3cc(C(=O)NCCN4CCc5ccccc5C4)sc3nc2c1
[1]
  EC50: 6.85 µM (active)
[2]
  EC50: 17.8 µM (active)
[3]
  EC50: 15.1 µM (active)

## O=C(CSCC(=O)OCn1nnc2ccccc2c1=O)Nc1ccc(Cl)cc1
[9]
  AC50: 25.1 µM (inconclusive)
[11]
  AC50: 25.1 µM (inconclusive)

## CC1(C)c2[nH]c3ccccc3c2C[C@H]2C(=O)N(Cc3ccccc3)C(=O)N21
[4]
  IC50: > 47.1 µM (inactive)
[5]
  EC50: > 53 µM (inactive)

## N#CC1=C(N)Oc2cc(N)ccc2C1C1CCCCC1 (configuration not stated)
[1]
  EC50: > 120 µM (not active)
[2]
  EC50: > 120 µM (not active)
[3]
  EC50: > 120 µM (not active)

## COc1ccc(-c2cc3cc(OC)c(OC)cc3cn2)cc1OC
[1]
  EC50: 10.2 µM (active)
[2]
  EC50: 21.7 µM (active)
[3]
  EC50: 18 µM (active)

## c1ccc(CCn2nnnc2CN2CCCc3ccccc32)cc1
[5]
  EC50: > 53 µM (inactive)

## NC(=S)Nc1ccc(Oc2ccc(NC(N)=S)cc2)cc1
[8]; read-out: AC50
  AC50: 25.1 µM (inconclusive)
[9]
  AC50: 14.1 µM (inconclusive)

## CC(Sc1nnc(Cc2cccs2)n1C1CC1)C(=O)NC1CCS(=O)(=O)C1 (configuration not stated)
[4]
  IC50: > 47.1 µM (inactive)
[5]
  EC50: > 53 µM (inactive)

## CCOC(=O)c1ccccc1N/C=C1\CCCCC1=O
[9]
  AC50: 35.5 µM (inconclusive)
[12]
  AC50: 39.8 µM (inconclusive)

## Cc1cc(C)cc(C(=O)NCC(=O)OCC(=O)NCC(F)(F)F)c1
[6]
  AC50: 9.91 µM (active)

## O=[N+]([O-])c1ccc(O)c(C2CCCCC2)c1
[10]
  AC50: 8.09 µM (active)

## Oc1cc(-c2ccc(C3CCCCC3)cc2)[nH]n1
[13]
  AC50: 1.99 µM (active)
[10]
  AC50: 8 µM (active)
[14]
  EC50: 1.01 µM (active)

## COc1ccc(OCC(O)CN2CCc3ccccc3C2)cc1 (configuration not stated)
[4]
  IC50: > 47.1 µM (inactive)
[5]
  EC50: > 53 µM (inactive)

## COc1ccc(CC(=O)Nc2cccc(-c3nnc(-c4ccco4)o3)c2)cc1
[9]
  AC50: 20 µM (inconclusive)
[11]
  AC50: 15.8 µM (inconclusive)

## CCOC(=O)C1CCCN(C(=O)c2cccc(S(=O)(=O)N(Cc3ccccc3)c3ccccc3OC)c2)C1 (configuration not stated)
[15]
  EC50: 35.2 µM (active)
[4]
  IC50: > 47.1 µM (inactive)
[16]
  EC50: 3.84 µM (active)
[5]
  EC50: > 53 µM (inactive)

## C#CCCCC(=S)Nc1ccccc1
[8]; read-out: AC50
  AC50: 39.8 µM (inconclusive)
[9]
  AC50: 39.8 µM (inconclusive)
[7]
  AC50: 25.1 µM (inconclusive)
[12]
  AC50: 39.8 µM (inconclusive)
